Results published in paper PMC4414180, “SKI2162, an inhibitor of the TGF-β type I receptor (ALK5), inhibits radiation-induced fibrosis in mice” (Oncotarget, 2015).

Assays:
ALK1 = target: T1, ALK1 (Homo sapiens, UniProt P37023); test: ALK1 selectivity, radioisotope-based (33P) kinase assay; assay type: biochemical; conditions: Supplementary Table 1, unit inferred
T1 construct: GST/histidine tag; made in house; host or cells: insect cells
Experimental: (§1) The kinase activity of ALK5, ALK1, and p38 MAPK were assessed by measuring radiolabelled phosphate (^33P) incorporation into casein. ALK1 and p38 MAPK are closely related to ALK5, and were used for comparison with ALK5 in a SKI2162 selectivity study. IC50 values were calculated from dose–response curves. […]
(§2) www.impactjournals.com/oncotarget/ Oncotarget, Advance Publications 2014 SUPPLEMENTARY METHODS AND MATERIALS
(§3) Cell culture and reagents ACC-3′ (reverse). All samples were normalized to A human keratinocyte cell line (HaCaT) and GAPDH and expressed as the fold induction. Relative an SV40-transformed human fibroblast cell line expression levels were calculated using the comparative (WI38VA13) were cultured in Minimum Essential threshold method. All reactions were done in triplicate.
(§4) Media (Gibco/Life Technologies, USA) or in Dulbecco’s Histopathologic evaluation and fibrosis-related Modified Eagle’s Medium (Gibco/Life Technologies, gene expression in RIF tissues USA), respectively, with 10% fetal bovine serum (Gibco/
(§5) Life Technologies, USA), in a humidified 5% CO2 The skin and soft tissue of the irradiated leg was […]

p38 MAPK = target: T2, p38 MAPK (Homo sapiens, UniProt Q16539); test: p38 MAPK selectivity, radioisotope-based (33P) kinase assay; assay type: biochemical; conditions: Supplementary Table 1, unit inferred
T2 construct: GST/histidine tag; made in house; host or cells: insect cells
Experimental: as §1, §2, §3, §4, §5

T2 sequence (Q16539 whole entry): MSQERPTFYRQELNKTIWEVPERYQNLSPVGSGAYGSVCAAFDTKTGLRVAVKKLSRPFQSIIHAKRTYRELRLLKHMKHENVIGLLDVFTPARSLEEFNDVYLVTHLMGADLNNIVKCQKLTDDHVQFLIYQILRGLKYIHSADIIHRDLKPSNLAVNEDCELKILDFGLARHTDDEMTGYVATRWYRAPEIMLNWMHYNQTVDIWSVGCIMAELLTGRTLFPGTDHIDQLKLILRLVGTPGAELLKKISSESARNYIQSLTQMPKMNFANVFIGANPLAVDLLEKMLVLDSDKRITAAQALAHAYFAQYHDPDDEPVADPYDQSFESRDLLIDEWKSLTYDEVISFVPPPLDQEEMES
T1 sequence (P37023 22-503, species assumed): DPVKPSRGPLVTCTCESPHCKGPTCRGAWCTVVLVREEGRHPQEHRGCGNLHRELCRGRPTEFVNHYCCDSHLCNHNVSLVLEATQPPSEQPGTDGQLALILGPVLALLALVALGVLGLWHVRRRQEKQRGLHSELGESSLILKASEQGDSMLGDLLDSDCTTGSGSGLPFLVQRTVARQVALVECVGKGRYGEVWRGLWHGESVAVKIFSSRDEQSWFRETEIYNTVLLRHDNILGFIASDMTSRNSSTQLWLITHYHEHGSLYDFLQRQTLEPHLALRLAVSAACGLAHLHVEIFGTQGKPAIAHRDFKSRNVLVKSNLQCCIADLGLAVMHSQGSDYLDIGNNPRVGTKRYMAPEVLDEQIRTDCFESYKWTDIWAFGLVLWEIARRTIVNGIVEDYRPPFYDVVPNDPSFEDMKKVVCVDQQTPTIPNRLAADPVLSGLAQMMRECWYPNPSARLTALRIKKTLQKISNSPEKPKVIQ

Cc1cccc(-c2nn3c(c2-c2ccnc4ccc(C(N)=O)cc24)CCC3)n1 [LY2157299]
IC50 (ALK1): 9.9 µM | IC50 (p38 MAPK): 0.379 µM
